The source made the active and inactive calls. No rule for the calls is given here.
Each molecule was assayed against Core antigen (Hepatitis B virus) (UniProt Q03732) (assay: Inhibition of Hepatitis B virus capsid formation at 100 uM treated during cell-free wild type HBV Cp synthesis using wheat germ lysates and HBV Cp RNA by Native capsid assay based western blot analysis).
Assay type: subcellular

Core antigen (Hepatitis B virus), sequence (Q03732 as listed by the source): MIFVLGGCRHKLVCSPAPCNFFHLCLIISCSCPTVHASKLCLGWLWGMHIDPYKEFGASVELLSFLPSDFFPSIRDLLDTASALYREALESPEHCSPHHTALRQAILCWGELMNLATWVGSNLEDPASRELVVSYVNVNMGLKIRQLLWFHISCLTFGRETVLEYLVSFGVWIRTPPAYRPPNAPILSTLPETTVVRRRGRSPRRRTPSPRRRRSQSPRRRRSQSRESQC

SMILES	inhibition
CC(=O)N[C@@H](C)C(=O)N[C@@H](CO)C(=O)N[C@H](C(=O)N[C@@H](CCC(=O)O)C(=O)N[C@@H](CC(C)C)C(=O)N[C@@H](CC(C)C)C(=O)N[C@@H](CO)C(=O)N[C@@H](Cc1ccccc1)C(=O)N[C@@H](CC(C)C)C(=O)N1CCC[C@H]1C(=O)N[C@@H](CO)C(=O)N[C@@H](CC(=O)O)C(=O)N[C@@H](Cc1ccccc1)C(=O)N[C@@H](Cc1ccccc1)C(=O)N1CCC[C@H]1C(N)=O)C(C)C	inactive
CC(=O)N[C@@H](CC(C)C)C(=O)N[C@@H](CCC(=O)O)C(=O)N[C@@H](CC(=O)O)C(=O)N1CCC[C@H]1C(=O)N[C@@H](C)C(=O)N[C@@H](CO)C(=O)N[C@@H](CCCNC(=N)N)C(=O)N[C@@H](CCC(=O)O)C(=O)N[C@@H](CC(C)C)C(=O)N[C@H](C(=O)N[C@H](C(=O)N[C@@H](CO)C(=O)N[C@@H](Cc1ccc(O)cc1)C(=O)N[C@H](C(=O)N[C@@H](CC(N)=O)C(N)=O)C(C)C)C(C)C)C(C)C	inactive
CC(=O)N[C@@H](Cc1c[nH]c2ccccc12)C(=O)N[C@H](C(=O)NCC(=O)N[C@@H](CO)C(=O)N[C@@H](CC(N)=O)C(=O)N[C@@H](CC(C)C)C(=O)N[C@@H](CCC(=O)O)C(=O)N[C@@H](CC(=O)O)C(=O)N1CCC[C@H]1C(=O)N[C@@H](C)C(=O)N[C@@H](CO)C(=O)N[C@@H](CCCNC(=N)N)C(=O)N[C@@H](CCC(=O)O)C(=O)N[C@@H](CC(C)C)C(=O)N[C@H](C(N)=O)C(C)C)C(C)C	inactive
CC(=O)N[C@@H](Cc1ccc(O)cc1)C(=O)N[C@@H](CCCCN)C(=O)N[C@@H](CCC(=O)O)C(=O)N[C@@H](Cc1ccccc1)C(=O)NCC(=O)N[C@@H](C)C(=O)N[C@@H](CO)C(=O)N[C@H](C(=O)N[C@@H](CCC(=O)O)C(=O)N[C@@H](CC(C)C)C(=O)N[C@@H](CC(C)C)C(=O)N[C@@H](CO)C(=O)N[C@@H](Cc1ccccc1)C(=O)N[C@@H](CC(C)C)C(=O)N1CCC[C@H]1C(N)=O)C(C)C	inactive
CC(C)C[C@H](NC(=O)[C@@H](NC(=O)[C@@H](N)CO)[C@@H](C)O)C(=O)N1CCC[C@H]1C(=O)N[C@@H](CCC(=O)O)C(=O)N[C@H](C(=O)N[C@H](C(=O)N[C@H](C(=O)N[C@H](C(=O)N[C@@H](CCCNC(=N)N)C(=O)N[C@@H](CCCNC(=N)N)C(=O)N[C@@H](CCCNC(=N)N)C(=O)NCC(=O)N[C@@H](CCCNC(=N)N)C(=O)N[C@@H](CO)C(N)=O)C(C)C)C(C)C)[C@@H](C)O)[C@@H](C)O	inactive
CC[C@H](C)[C@H](NC(=O)[C@@H]1CCCN1C(=O)[C@H](C)NC(=O)[C@H](CC(N)=O)NC(C)=O)C(=O)N[C@@H](CC(C)C)C(=O)N[C@@H](CO)C(=O)N[C@H](C(=O)N[C@@H](CC(C)C)C(=O)N1CCC[C@H]1C(=O)N[C@@H](CCC(=O)O)C(=O)N[C@H](C(=O)N[C@H](C(=O)N[C@H](C(=O)N[C@H](C(=O)N[C@@H](CCCNC(=N)N)C(N)=O)C(C)C)C(C)C)[C@@H](C)O)[C@@H](C)O)[C@@H](C)O	inactive
CC[C@H](C)[C@H](NC(=O)[C@H](C)NC(=O)[C@H](CCC(N)=O)NC(=O)[C@@H]1CCCN1C(C)=O)C(=O)N[C@@H](CC(C)C)C(=O)N[C@@H](CS)C(=O)N[C@@H](Cc1c[nH]c2ccccc12)C(=O)NCC(=O)N[C@@H](CCC(=O)O)C(=O)N[C@@H](CC(C)C)C(=O)N[C@@H](CCSC)C(=O)N[C@@H](CC(N)=O)C(=O)N[C@@H](CC(C)C)C(=O)N[C@@H](C)C(=O)N[C@H](C(N)=O)[C@@H](C)O	inactive
CC[C@H](C)[C@H](NC(=O)[C@H](CC(=O)O)NC(=O)[C@H](CCSC)NC(C)=O)C(=O)N[C@@H](CC(=O)O)C(=O)N1CCC[C@H]1C(=O)N[C@@H](Cc1ccc(O)cc1)C(=O)N[C@@H](CCCCN)C(=O)N[C@@H](CCC(=O)O)C(=O)N[C@@H](Cc1ccccc1)C(=O)NCC(=O)N[C@@H](C)C(=O)N[C@@H](CO)C(=O)N[C@H](C(=O)N[C@@H](CCC(=O)O)C(=O)N[C@@H](CC(C)C)C(N)=O)C(C)C	inactive
CC[C@H](C)[C@H](NC(=O)[C@H](CO)NC(=O)[C@@H]1CCCN1C(=O)[C@H](Cc1ccccc1)NC(=O)[C@H](Cc1ccccc1)NC(=O)[C@H](CC(=O)O)NC(=O)[C@H](CO)NC(=O)[C@@H]1CCCN1C(=O)[C@H](CC(C)C)NC(=O)[C@H](Cc1ccccc1)NC(=O)[C@H](CO)NC(=O)[C@H](CC(C)C)NC(C)=O)C(=O)N[C@@H](CCCNC(=N)N)C(=O)N[C@@H](CC(=O)O)C(=O)N[C@@H](CC(C)C)C(N)=O	inactive
CC[C@H](C)[C@H](NC(=O)[C@H](CO)NC(=O)[C@@H]1CCCN1C(=O)[C@H](Cc1ccccc1)NC(=O)[C@H](Cc1ccccc1)NC(=O)[C@H](CC(=O)O)NC(=O)[C@H](CO)NC(C)=O)C(=O)N[C@@H](CCCNC(=N)N)C(=O)N[C@@H](CC(=O)O)C(=O)N[C@@H](CC(C)C)C(=O)N[C@@H](CC(C)C)C(=O)N[C@@H](CC(=O)O)C(=O)N[C@H](C(=O)N[C@@H](C)C(=O)N[C@@H](CO)C(N)=O)[C@@H](C)O	inactive
CC[C@H](C)[C@H](NC(=O)[C@H](CO)NC(C)=O)C(=O)N[C@@H](CCCNC(=N)N)C(=O)N[C@@H](CC(=O)O)C(=O)N[C@@H](CC(C)C)C(=O)N[C@@H](CC(C)C)C(=O)N[C@@H](CC(=O)O)C(=O)N[C@H](C(=O)N[C@@H](C)C(=O)N[C@@H](CO)C(=O)N[C@@H](C)C(=O)N[C@@H](CC(C)C)C(=O)N[C@@H](Cc1ccc(O)cc1)C(=O)N[C@@H](CCCNC(=N)N)C(=O)N[C@@H](CCC(=O)O)C(N)=O)[C@@H](C)O	inactive
CC[C@H](C)[C@H](NC(=O)[C@H](Cc1c[nH]c2ccccc12)NC(=O)[C@@H](NC(=O)CNC(=O)[C@H](Cc1ccccc1)NC(=O)[C@H](CO)NC(C)=O)C(C)C)C(=O)N[C@@H](CCCNC(=N)N)C(=O)N[C@H](C(=O)N1CCC[C@H]1C(=O)N1CCC[C@H]1C(=O)N[C@@H](C)C(=O)N[C@@H](Cc1ccc(O)cc1)C(=O)N[C@@H](CCCNC(=N)N)C(=O)N1CCC[C@H]1C(=O)N1CCC[C@H]1C(N)=O)[C@@H](C)O	inactive
CSCC[C@H](NC(=O)[C@H](CC(C)C)NC(=O)[C@H](CCC(=O)O)NC(=O)CNC(=O)[C@H](Cc1c[nH]c2ccccc12)NC(=O)[C@H](CS)NC(C)=O)C(=O)N[C@@H](CC(N)=O)C(=O)N[C@@H](CC(C)C)C(=O)N[C@@H](C)C(=O)N[C@H](C(=O)N[C@@H](Cc1c[nH]c2ccccc12)C(=O)N[C@H](C(=O)NCC(=O)N[C@@H](CO)C(=O)N[C@@H](CC(N)=O)C(N)=O)C(C)C)[C@@H](C)O	inactive
CSCC[C@H](NC(=O)[C@H](CC(N)=O)NC(=O)[C@@H](NC(=O)[C@H](CC(N)=O)NC(=O)[C@@H](NC(=O)[C@H](Cc1ccc(O)cc1)NC(=O)[C@H](CO)NC(=O)[C@@H](NC(=O)[C@@H](NC(=O)[C@H](CC(C)C)NC(=O)[C@H](CCC(=O)O)NC(=O)[C@H](CCCNC(=N)N)NC(=O)[C@H](CO)NC(C)=O)C(C)C)C(C)C)C(C)C)C(C)C)C(=O)NCC(=O)N[C@@H](CC(C)C)C(N)=O	inactive
CSCC[C@H](NC(C)=O)C(=O)N[C@@H](CC(N)=O)C(=O)N[C@@H](CC(C)C)C(=O)N[C@@H](C)C(=O)N[C@H](C(=O)N[C@@H](Cc1c[nH]c2ccccc12)C(=O)N[C@H](C(=O)NCC(=O)N[C@@H](CO)C(=O)N[C@@H](CC(N)=O)C(=O)N[C@@H](CC(C)C)C(=O)N[C@@H](CCC(=O)O)C(=O)N[C@@H](CC(=O)O)C(=O)N1CCC[C@H]1C(=O)N[C@@H](C)C(N)=O)C(C)C)[C@@H](C)O	inactive

Source: ChEMBL document CHEMBL6103552, “Identification of peptide-based hepatitis B virus capsid inhibitors based on the viral core protein” (Bioorg Med Chem Lett, 2025)
